Laboratory results reported in patent US10399939B2, “Tetrahydronaphthalene estrogen receptor modulators and uses thereof” (Genentech, Inc., priority 2015, dated 2019).

Biological target: ER-alpha (WT) (Homo sapiens (Human), UniProt P03372)
Test: Breast Cancer Cell ERa High Content Fluorescence Imaging Degradation Assay (ER-alpha MCF7 HCS)
Format: cell-based
Details: for ER-alpha (WT) MCF7 HCS (EC50) / EC50 / ER-alpha (WT) MCF7 HCS (S inf): MCF7 breast cancer cells; for ER-alpha (WT) MCF7 HCS (EC50) / EC50: 4 hours incubation, inflexion point of curve; for ER-alpha (WT) MCF7 HCS (S inf): plateau of the maximal effect (ERa degradation), DMSO and 5 nM Fulvestrant define 0% and 100% changes in ESR1; for degradation activities measured as ER-alpha MCF7 HCS Sinf (%) values (in words): MCF7 cells
Description: Example 901: Breast Cancer Cell ERa High Content Fluorescence Imaging Degradation Assay
MCF7 breast cancer cells were seeded on day 1 at a density of 10,000 cells per well in 384 well poly-lysine coated tissue culture plate (Greiner # T-3101-4), in 50 µL/well RPMI (phenol red free), 10% FBS (Charcoal stripped), containing L-glutamine. […] Compounds and controls were dispensed using a Labcyte Echo acoustic dispenser to dispense compounds with a pre-defined serial dilution (1.8×, 10 point, in duplicate) and appropriate backfill and control compounds (final total volume transferred was 417.5 nL and compound dispense volume ranges from 2.5 nL to 417.5 nL; 0.84% DMSO (v/v) final), ultimately producing a concentration range from 0.05 nM to 835 nM. Cell plates were incubated at 37° C., for 4 hours. Fixation and permeabilization were carried out using a Biotek EL406 plate washer and dispenser as follows. Cells were fixed by addition of 15 μL of 16% paraformaldehyde (Electron Microscopy Sciences #15710-S) directly to the 50 μL cell culture medium in each well using the peristaltic pump 5 μL cassette on a Biotek EL406 (final concentration of formaldehyde was 3.7% w/v). Samples were incubated 30 minutes. Well contents was aspirated and 50 μL/well of Phosphate Buffered Saline (PBS) containing 0.5% w/v bovine serum albumen, 0.5% v/v Triton X-100 (Antibody Dilution Buffer) was added to each well. Samples were incubated for 30 minutes. Well contents were aspirated and washed 3 times with 100 μL/well of PBS. Immunofluorescence staining of estrogen receptor alpha (ESR1) was carried out using a Biotek EL406 plate washer and dispenser as follows. The well supernatant was aspirated from the wells and 25 μL/well of anti-ESR1 mAb (F10) (Santa Cruz sc-8002) diluted 1:1000 in Antibody Dilution Buffer was dispensed. Samples were incubated for 2 hours at room temperature. Samples were washed 4 times with 100 μL/well of PBS. 25 μL (microliters)/well of secondary antibody solution (Alexafluor® 488 conjugate anti-mouse IgG (LifeTechnologies #A21202) diluted 1:1000 and Hoechst 33342 1 μg/ml diluted in Antibody Dilution Buffer) were dispensed into each well. Samples were incubated for 2 hours at room temperature. Samples were washed 3 times with 100 μL/well of PBS using a Biotek EL406. Quantitative fluorescence imaging of ESR1 was carried out using a Cellomics Arrayscan V® (Thermo). Fluorescence images of the samples (Channel 1: XF53 Hoechst (DNA stain); Channel 2: XF53 FITC (ESR1 stain)) were acquired using a Cellomics VTI Arrayscan using the Bioapplication “Compartmental Analysis” using the auto-exposure (based on DMSO control wells) setting “peak target percentile” set to 25% target saturation for both channels. Channel 1 (DNA stain) was used to define the nuclear region (Circ). Measurements of “Mean_CircAvgIntCh2”, which is the Alexafluor 488 fluorescence intensity (ESR1) within the nuclear region, was measured on a per cell basis and averaged over all the measured cells. Data analysis was carried out using Genedata Screener Software, with DMSO and 5 nM Fulvestrant treated samples being used to define the 0% and 100% changes in ESR1. The “Robust Fit” method was used to define the inflexion point of curve (EC50) and the plateau of the maximal effect (Sinf).

ER-alpha (WT), sequence (P03372 whole entry): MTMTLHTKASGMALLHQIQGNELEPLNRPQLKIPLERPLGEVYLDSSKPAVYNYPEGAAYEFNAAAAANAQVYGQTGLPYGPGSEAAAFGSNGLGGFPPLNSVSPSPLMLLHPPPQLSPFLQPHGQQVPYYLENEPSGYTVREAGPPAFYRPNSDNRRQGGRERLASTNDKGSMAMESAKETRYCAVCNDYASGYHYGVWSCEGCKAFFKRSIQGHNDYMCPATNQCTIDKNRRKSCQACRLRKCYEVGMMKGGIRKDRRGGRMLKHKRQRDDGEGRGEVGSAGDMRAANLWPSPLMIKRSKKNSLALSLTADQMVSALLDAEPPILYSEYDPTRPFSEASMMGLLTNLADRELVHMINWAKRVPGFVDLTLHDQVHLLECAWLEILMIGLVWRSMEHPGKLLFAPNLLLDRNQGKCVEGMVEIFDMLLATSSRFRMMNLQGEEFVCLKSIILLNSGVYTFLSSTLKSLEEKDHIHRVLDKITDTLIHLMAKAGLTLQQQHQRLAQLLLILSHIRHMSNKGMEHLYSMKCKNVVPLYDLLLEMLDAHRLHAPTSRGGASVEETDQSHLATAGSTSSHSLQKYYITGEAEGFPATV

| Compound | ER-alpha (WT) MCF7 HCS (EC50) | EC50 | ER-alpha (WT) MCF7 HCS (S inf) | degradation activities measured as ER-alpha MCF7 HCS Sinf (%) values (in words) |
| --- | --- | --- | --- | --- |
| Oc1ccc2c(c1)CC[C@@H](c1ccccc1)[C@H]2c1ccc(OCCN2CC(C(F)F)C2)cc1 [Compound 116, (5S,6R)-5-(4-(2-(3-(difluoromethyl)azetidin-1-yl)ethoxy)phenyl)-6-phenyl-5,6,7,8-tetrahydronaphthalen-2-ol] | >0.10 µmol | – | – | – |
| N#Cc1ccc([C@@H]2CCc3cc(O)ccc3[C@@H]2c2ccc(OCCN3CC(CF)C3)cc2)cc1 [Compound 134, 4-((1S,2R)-1-(4-(2-(3-(fluoromethyl)azetidin-1-yl)ethoxy)phenyl)-6-hydroxy-1,2,3,4-tetrahydronaphthalen-2-yl)benzonitrile] | – | 38.5 pM | −99.2% | – |
| Oc1ccc2c(c1)CC[C@H](c1ccccc1)[C@@H]2c1ccc(NCCN2CC[C@@H](CF)C2)cc1 [Compound 139, (5R,6S)-5-(4-((2-((R)-3-(fluoromethyl)pyrrolidin-1-yl)ethyl)amino)phenyl)-6-phenyl-5,6,7,8-tetrahydronaphthalen-2-ol] | – | 228000 pM | −50% | – |
| Oc1ccc2c(c1)CC[C@@H](c1ccccc1)[C@H]2c1ccc(OCCN2CC(CCl)C2)cc1 [Compound 113, (5S,6R)-5-(4-(2-(3-(chloromethyl)azetidin-1-yl)ethoxy)phenyl)-6-phenyl-5,6,7,8-tetrahydronaphthalen-2-ol] | – | 177 pM | −93.6% | – |
| Oc1ccc2c(c1)CC[C@H](c1ccc(F)cc1)[C@@H]2c1ccc(OCCN2CC(CF)C2)cc1 [Compound 106, (1R,2S)-1-[4-[2-[3-(fluoromethyl)azetidin-1-yl]ethoxy]phenyl]-2-(4-fluorophenyl)tetralin-6-ol] | – | 977 pM | −97% | – |
| C[C@H](CN1CC[C@@H](CF)C1)Oc1ccc([C@@H]2c3ccc(O)cc3CC[C@@H]2c2ccccc2)cc1 [Compound 125, (5R,6S)-5-(4-(((R)-1-((R)-3-(fluoromethyl)pyrrolidin-1-yl)propan-2-yl)oxy)phenyl)-6-phenyl-5,6,7,8-tetrahydronaphthalen-2-ol] | >0.10 µmol | – | – | – |
| Oc1ccc2c(c1)CC[C@@H](c1ccccc1)[C@H]2c1c(F)cc(OCCN2CC(CF)C2)cc1F [Compound 104, (1R,2R)-1-[2,6-difluoro-4-[2-[3-(fluoromethyl)azetidin-1-yl]ethoxy]phenyl]-2-phenyl-tetralin-6-ol] | – | 15600 pM | −95% | – |
| Oc1ccc2c(c1)CC[C@@H](c1ccccc1)[C@H]2c1ccc(NCCN2CC[C@@H](CF)C2)cc1 [Compound 140, (5S,6R)-5-(4-((2-((R)-3-(fluoromethyl)pyrrolidin-1-yl)ethyl)amino)phenyl)-6-phenyl-5,6,7,8-tetrahydronaphthalen-2-ol] | – | 773 pM | −45% | – |
| N#Cc1ccc([C@H]2CCc3cc(O)ccc3[C@H]2c2ccc(OCCN3CC(CF)C3)cc2)cc1 [Compound 133, 4-((1R,2S)-1-(4-(2-(3-(fluoromethyl)azetidin-1-yl)ethoxy)phenyl)-6-hydroxy-1,2,3,4-tetrahydronaphthalen-2-yl)benzonitrile] | – | 53000 pM | −30% | – |
| Oc1ccc2c(c1)CC[C@H](c1ccccc1)[C@@H]2c1ccc(OCCN2CC(CF)C2)nc1 [Compound 127, (5S,6S)-5-(6-(2-(3-(fluoromethyl)azetidin-1-yl)ethoxy)pyridin-3-yl)-6-phenyl-5,6,7,8-tetrahydronaphthalen-2-ol] | – | 46.1 pM | −96.5% | – |
| Oc1ccc2c(c1)CC[C@@H](c1ccc(F)cc1)[C@H]2c1ccc(OCCN2CC(CF)C2)cc1 [Compound 103, (1S,2R)-1-[4-[2-[3-(fluoromethyl)azetidin-1-yl]ethoxy]phenyl]-2-(4-fluorophenyl)tetralin-6-ol] | – | 38600 pM | −78% | – |
| C[C@@H](COc1ccc([C@@H]2c3ccc(O)cc3CC[C@@H]2c2ccccc2)cc1)N1CC[C@@H](CF)C1 [Compound 123, (5R,6S)-5-(4-((S)-2-((R)-3-(fluoromethyl)pyrrolidin-1-yl)propoxy)phenyl)-6-phenyl-5,6,7,8-tetrahydronaphthalen-2-ol] | – | 16900 pM | −30% | – |
| Oc1ccc2c(c1)CCC1(CCCC1)[C@H]2c1ccc(OCCN2CC(CF)C2)cc1 [Compound 121, (S)-1′-(4-(2-(3-(fluoromethyl)azetidin-1-yl)ethoxy)phenyl)-3′,4′-dihydro-1′H-spiro[cyclopentane-1,2′-naphthalen]-6′-ol] | – | 208 pM | −98.5% | – |
| Oc1ccc2c(c1)CC[C@H](c1ccccc1)[C@@H]2c1c(F)cc(OCCN2CC(CF)C2)cc1F [Compound 105, (1S,2S)-1-[2,6-difluoro-4-[2-[3-(fluoromethyl)azetidin-1-yl]ethoxy]phenyl]-2-phenyl-tetralin-6-ol] | – | 40.4 pM | −98.7% | – |
| CN1CC(CCOc2ccc([C@H]3c4ccc(O)cc4CC[C@H]3c3ccccc3)cc2)C1 (stereo in doubt) [B, (5S,6R)-5-(4-(2-(1-methylazetidin-3-yl)ethoxy)phenyl)-6-phenyl-5,6,7,8-tetrahydronaphthalen-2-ol, reference compound] | – | 26 pM | −43.35% | low |
| CS(=O)(=O)c1ccc([C@H]2CCc3cc(O)ccc3[C@H]2c2ccc(OCCN3CC(CF)C3)cc2)cc1 [Compound 117, (5R,6S)-5-(4-(2-(3-(fluoromethyl)azetidin-1-yl)ethoxy)phenyl)-6-(4-(methylsulfonyl)phenyl)-5,6,7,8-tetrahydronaphthalen-2-ol] | – | 227 pM | −91.4% | – |
| Oc1ccc2c(c1)CC[C@H](c1ccccc1)[C@@H]2c1ccc(OCCN2CC(CF)C2)cc1F [Compound 120, (5S,6S)-5-(2-fluoro-4-(2-(3-(fluoromethyl)azetidin-1-yl)ethoxy)phenyl)-6-phenyl-5,6,7,8-tetrahydronaphthalen-2-ol] | – | 36 pM | −98.8% | – |
| CN1CC(CCOc2ccc([C@@H]3c4ccc(O)cc4CC[C@@H]3c3ccccc3)cc2)C1 (stereo in doubt) [A, (5R,6S)-5-(4-(2-(1-methylazetidin-3-yl)ethoxy)phenyl)-6-phenyl-5,6,7,8-tetrahydronaphthalen-2-ol, reference compound] | – | 19000 pM | −58% | low |
| Oc1ccc2c(c1)CC[C@@H](C1CCC(F)(F)CC1)[C@H]2c1ccc(OCCN2CC(CF)C2)cc1 [Compound 108, (5S,6S)-6-(4,4-difluorocyclohexyl)-5-(4-(2-(3-(fluoromethyl)azetidin-1-yl)ethoxy)phenyl)-5,6,7,8-tetrahydronaphthalen-2-ol] | – | 14600 pM | −97% | – |
| Oc1ccc2c(c1)CC[C@@H](C1CCOCC1)[C@H]2c1ccc(OCCN2CC(CF)C2)cc1 [Compound 109, (5S,6S)-5-(4-(2-(3-(fluoromethyl)azetidin-1-yl)ethoxy)phenyl)-6-(tetrahydro-2H-pyran-4-yl)-5,6,7,8-tetrahydronaphthalen-2-ol] | – | 164 pM | −95.2% | – |
